Activity calls are given as the source filed them. No rule for the calls is given here.
System: rodent carcinogenicity bioassays, tumor incidence
Assay: CCRIS carcinogenicity studies
In short: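 NCI-built, expert-reviewed records of carcinogenicity and related test outcomes (mutagenicity, tumor promotion/inhibition) compiled from published and report sources, historical span 1985-2011, not updated.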

Measured: carcinogen call

Cn1c(N)nc2ncc(-c3ccccc3)cc21
inactive: Species: HAMSTER, Strain/Sex: RAPID ACETYLATOR CONGENIC/MALE, Route: ORAL, Dose: 75 MG/KG BW/DOSE BY GAVAGE, 2 DOSES/WK FOR 4 WK FOLLOWED BY 1 DOSE/WK FOR 1 WK AND 1 DOSE/2 WK FOR 4 WK, FOLLOWED BY A H inactive; negative | Species: HAMSTER, Strain/Sex: SLOW ACETYLATOR CONGENIC/MALE, Route: ORAL, Dose: 75 MG/KG BW/DOSE BY GAVAGE, 2 DOSES/WK FOR 4 WK FOLLOWED BY 1 DOSE/WK FOR 1 WK AND 1 DOSE/2 WK FOR 4 WK, FOLLOWED BY A H inactive; negative | Species: MOUSE, Strain/Sex: B6C3F1/MALE, Route: INTRAPERITONEAL, Dose: 0, 0.625 UMOL IN 35 µL DMSO ON D 1, 8, AND 15 AFTER BIRTH (STUDY DURATION: 8 MO) inactive; negative | Species: MOUSE, Strain/Sex: EU-PIM-1/FEMALE, Route: ORAL, Dose: 0, 0.03% IN DIET FOR 31 WK (STUDY DURATION: 31 WK) inactive; negative | Species: MOUSE, Strain/Sex: EU-PIM-1/MALE, Route: ORAL, Dose: 0, 0.03% IN DIET FOR 31 WK (STUDY DURATION: 31 WK) inactive; negative | Species: MOUSE, Strain/Sex: NON-TRANSGENIC WILD-TYPE/FEMALE, Route: ORAL, Dose: 0, 0.03% IN DIET FOR 31 WK (STUDY DURATION: 31 WK) inactive; negative | Species: MOUSE, Strain/Sex: NON-TRANSGENIC WILD-TYPE/MALE, Route: ORAL, Dose: 0, 0.03% IN DIET FOR 31 WK (STUDY DURATION: 31 WK) inactive; negative | Species: MOUSE, Strain/Sex: TRANSGENIC EU-PIM-1/MALE, Route: ORAL, Dose: 0, 0.03% IN DIET FOR 31 WK (STUDY DURATION: 31 WK) inactive; negative | Species: MOUSE, Strain/Sex: WILD-TYPE/FEMALE, Route: ORAL, Dose: 0, 0.03% IN DIET FOR 31 WK (STUDY DURATION: 31 WK) inactive; negative | Species: MOUSE, Strain/Sex: WILD-TYPE/MALE, Route: ORAL, Dose: 0, 0.03% IN DIET FOR 31 WK (STUDY DURATION: 31 WK) inactive; negative | Species: RAT, Strain/Sex: F344/MALE, FEMALE, Route: MATERNAL MILK, Dose: 200 PPM IN DIET TO MOTHERS FROM D OF MATING TO WEANING, THEN OFFSPRING ON CONTROL DIET FOR 60 WKS (STUDY DURATION: 63 WK inactive; negative; prostate and colon tumors not enhanced; multiplicity of aberrant crypt | Species: RAT, Strain/Sex: SPRAGUE DAWLEY/FEMALE, 150 D OLD, Route: ORAL, Dose: 75 MG/DOSE, 10 DOSES GIVEN ONCE/D OVER 12 D (STUDY DURATION: 6 MO), Tumor Site: Type of Lesion: MAMMARY GLAND inactive; negative (0% incidence) | Species: RAT, Strain/Sex: SPRAGUE-DAWLEY/MALE, Route: ORAL, Dose: 0, 25, 100 PPM IN DIET FROM WEANING TO 47 WK OF AGE (STUDY DURATION: 47 WK), Dose: 0, 25, 100 PPM IN DIET FROM WEANING TO 47 WK OF AGE (STUDY DURATION: 47 WK) inactive; negative | Species: RAT, Strain/Sex: SPRAGUE-DAWLEY/MALE, Route: TRANSPLACENTAL, ORAL, Dose: 0, 100 PPM IN DIET OF MOTHERS BEGINNING 4 WK BEFORE MATING AND CONTINUING THROUGH LACTATION THEN OFFSPRING ADMINISTERED inactive; negative
active: Species: MOUSE, Strain/Sex: B6C3F1/MALE, Route: INTRAPERITONEAL, Dose: 0, 0.625 UMOL IN 35 µL DMSO ON D 1, 8, AND 15 AFTER BIRTH (STUDY DURATION: 12 MO), Tumor Site: Type of Lesion: LIVER: HEPATOCELLULAR ADENOMA active; positive | Species: MOUSE, Strain/Sex: B6C3F1/MALE, Route: INTRAPERITONEAL, Dose: 0, 1.25 UMOL IN 35 µL DMSO ON D 1, 8, AND 15 AFTER BIRTH (STUDY DURATION: 8 MO), Tumor Site: Type of Lesion: LIVER: HEPATOCELLULAR ADENOMA active; positive | Species: MOUSE, Strain/Sex: B6C3F1/MALE, Route: INTRAPERITONEAL, Dose: 0, 1.25 UMOL IN 35 µL DMSO ON D 1, 8, AND 15 AFTER BIRTH (STUDY DURATION: 12 MO), Tumor Site: Type of Lesion: LIVER: HEPATOCELLULAR ADENOMA, HEPATOCELLULAR CARCINOMA active; positive | Species: MOUSE, Strain/Sex: C57/FEMALE, Route: ORAL, Dose: 0, 300 PPM IN HIGH FAT DIET FOR 40 WK, FOLLOWED BY CONTINUOUS FEEDING OF HIGH FAT DIET UNTIL STUDY TERMINATION (STUDY DU, Tumor Site: Type of Lesion: SMALL INTESTINE: ADENOCARCINOMAS OR ADENOMAS active; positive | Species: MOUSE, Strain/Sex: C57/MALE, Route: ORAL, Dose: 0, 300 PPM IN HIGH FAT DIET FOR 40 WK, FOLLOWED BY CONTINUOUS FEEDING OF HIGH FAT DIET UNTIL STUDY TERMINATION (STUDY DU, Tumor Site: Type of Lesion: SMALL INTESTINE: ADENOCARCINOMAS OR ADENOMAS, LYMPHATIC SYSTEM: LYMPHOMA active; positive | Species: MOUSE, Strain/Sex: CDF1/FEMALE, Route: ORAL, Dose: 0, 0.04% IN THE DIET FOR DURATION OF STUDY (STUDY DURATION: 579 D), Tumor Site: Type of Lesion: HEMATOPOIETIC SYSTEM: LYMPHOMA active; positive | Species: MOUSE, Strain/Sex: CDF1/MALE, Route: ORAL, Dose: 0, 0.04% IN THE DIET FOR DURATION OF STUDY (STUDY DURATION: 579 D), Tumor Site: Type of Lesion: HEMATOPOIETIC SYSTEM: LYMPHOMA active; positive | Species: MOUSE, Strain/Sex: TRANSGENIC EU-PIM-1/FEMALE, Route: ORAL, Dose: 0, 0.03% IN DIET FOR 31 WK (STUDY DURATION: 31 WK), Tumor Site: Type of Lesion: LYMPHATIC SYSTEM: LYMPHOMA active; positive | Species: RAT, Strain/Sex: F344/FEMALE, Route: ORAL, Dose: 0, 25, 100 PPM IN DIET FOR 104 WK (STUDY DURATION: 104 WK), Dose: 0, 25, 100 PPM IN DIET FOR 104 WK (STUDY DURATION: 104 WK), Tumor Site: Type of Lesion: MAMMARY GLAND: ADENOCARCINOMA active; positive | Species: RAT, Strain/Sex: F344/FEMALE, Route: ORAL, Dose: 0, 400 PPM IN DIET FOR 52 WK (STUDY DURATION: 52 WK), Tumor Site: Type of Lesion: MAMMARY GLAND: ADENOCARCINOMA active; positive | Species: RAT, Strain/Sex: F344/MALE, Route: ORAL, Dose: 0, 25, 100 PPM IN DIET FOR 104 WK (STUDY DURATION: 104 WK), Dose: 0, 25, 100 PPM IN DIET FOR 104 WK (STUDY DURATION: 104 WK), Tumor Site: Type of Lesion: COLON: CARCINOMA active; positive | Species: RAT, Strain/Sex: F344/MALE, Route: ORAL, Dose: 0, 100, 300 PPM IN DIET FOR 40 WK (STUDY DURATION: 40 WK), Dose: 0, 100, 300 PPM IN DIET FOR 40 WK (STUDY DURATION: 40 WK), Tumor Site: Type of Lesion: PROSTATE (VENTRAL): PROSTATIC INTRAEPITHELIAL NEOPLASIA active; positive | Species: RAT, Strain/Sex: F344/MALE, Route: ORAL, Dose: 0, 400 PPM IN DIET FOR 52 WK (STUDY DURATION: 52 WK), Tumor Site: Type of Lesion: COLON: ADENOCARCINOMA active; positive | Species: RAT, Strain/Sex: F344/MALE, Route: ORAL, Dose: 0, 400 PPM IN DIET FOR 52 WK (STUDY DURATION: 52 WK), Tumor Site: Type of Lesion: PROSTATE (VENTRAL): CARCINOMA active; positive | Species: RAT, Strain/Sex: SPRAGUE DAWLEY/FEMALE, 43 D OLD, Route: ORAL, Dose: 75 MG/DOSE, 10 DOSES GIVEN ONCE/D OVER 12 D (STUDY DURATION: 6 MO), Tumor Site: Type of Lesion: MAMMARY GLAND active; positive (5% incidence) | Species: RAT, Strain/Sex: SPRAGUE-DAWLEY/FEMALE, Route: ORAL, Dose: 0, 12.5, 50 PPM IN DIET FOR DURATION OF STUDY (STUDY DURATION: 48 WK), Dose: 0, 12.5, 50 PPM IN DIET FOR DURATION OF STUDY (STUDY DURATION: 48 WK), Tumor Site: Type of Lesion: MAMMARY GLAND: TUMOR active; positive | Species: RAT, Strain/Sex: SPRAGUE-DAWLEY/FEMALE, Route: ORAL, Dose: 0, 25, 100, 200 PPM IN DIET FOR 48 WK (STUDY DURATION: 48 WK), Dose: 0, 25, 100, 200 PPM IN DIET FOR 48 WK (STUDY DURATION: 48 WK), Tumor Site: Type of Lesion: MAMMARY GLAND: TUMOR active; positive | Species: RAT, Strain/Sex: SPRAGUE-DAWLEY/FEMALE, Route: ORAL, Dose: 0, 25, 100, 200 PPM IN DIET FOR DURATION OF STUDY (STUDY DURATION: 48 WK), Dose: 0, 25, 100, 200 PPM IN DIET FOR DURATION OF STUDY (STUDY DURATION: 48 WK), Tumor Site: Type of Lesion: MAMMARY GLAND: TUMOR active; positive | Species: RAT, Strain/Sex: SPRAGUE-DAWLEY/FEMALE, Route: ORAL, Dose: 0, 25, 100 PPM IN DIET FROM WEANING TO 47 WK OF AGE (STUDY DURATION: 47 WK), Dose: 0, 25, 100 PPM IN DIET FROM WEANING TO 47 WK OF AGE (STUDY DURATION: 47 WK), Tumor Site: Type of Lesion: MAMMARY GLAND: TUMOR active; positive | Species: RAT, Strain/Sex: SPRAGUE-DAWLEY/FEMALE, Route: ORAL, Dose: 0, 75 MG/KG IN 5 ML CORN OIL 1/D ON DAYS 1-5 AND 8-12 OF STUDY FOLLOWED 2 DAYS LATER BY A HIGH-FAT DIET FOR DURATION OF, Tumor Site: Type of Lesion: MAMMARY GLAND: TUMOR active; positive | Species: RAT, Strain/Sex: SPRAGUE-DAWLEY/FEMALE, Route: TRANSPLACENTAL, ORAL, Dose: 0, 100 PPM IN DIET OF MOTHERS BEGINNING 4 WK BEFORE MATING AND CONTINUING THROUGH LACTATION THEN OFFSPRING ADMINISTERED, Tumor Site: Type of Lesion: MAMMARY GLAND: TUMOR active; positive | Species: RAT, Strain/Sex: STRAIN-CD/FEMALE, Route: GAVAGE, Dose: 0, 50 UMOL IN 0.5 ML TRIOCTANOIN 1/WK FOR 8 WK (STUDY DURATION: 49 WK), Tumor Site: Type of Lesion: MAMMARY GLAND: FIBROADENOMA, ADENOCARCINOMA active; positive

Source: PubChem BioAssay AID1259411 (Chemical Carcinogenesis Research Information System (CCRIS), 2018)
